Converted amounts (≈) assume the structure as drawn. The source made the active and inactive calls. The rule behind the calls is not given here.
Columns and labels:
Bacillus anthracis [1] = test: Antimicrobial activity against Bacillus anthracis A0193 by broth microdilution method; type: functional
Bacillus anthracis [2] = test: Antimicrobial activity against Bacillus anthracis A03768 by broth microdilution method; type: functional
Bacillus anthracis [3] = test: Antimicrobial activity against Bacillus anthracis Sterne 402 harboring gyrA Ser85Leu mutant gene by broth microdilution method; type: functional, Bacillus anthracis str. Sterne
Bacillus anthracis [4] = test: Antimicrobial activity against Bacillus anthracis A0465 by broth microdilution method; type: functional
Bacillus anthracis [5] = test: Antimicrobial activity against Bacillus anthracis Sterne 411A2 assessed as growth inhibition at 16 ug/ml after 4 hrs relative to control; type: functional, organism-based; conditions: Bacillus anthracis str. Sterne
Bacillus anthracis [6] = test: Antimicrobial activity against Bacillus anthracis A0248 by broth microdilution method; type: functional
Bacillus anthracis [7] = test: Antimicrobial activity against Bacillus anthracis A0462 by broth microdilution method; type: functional
Bacillus anthracis [8] = test: Antimicrobial activity against Bacillus anthracis Sterne 411A2 harboring GyrA Ser85Leu and parC Ser81Phe mutant gene by broth microdilution method; type: functional, Bacillus anthracis str. Sterne
Bacillus anthracis [9] = test: Antimicrobial activity against Bacillus anthracis A0102 by broth microdilution method; type: functional
Bacillus anthracis [10] = test: Antimicrobial activity against Bacillus anthracis A0488 by broth microdilution method; type: functional
Bacillus anthracis [11] = test: Antimicrobial activity against Bacillus anthracis A0149 by broth microdilution method; type: functional
Bacillus anthracis [12] = test: Antimicrobial activity against pXO1-positive and pXO2 negative Bacillus anthracis 34F2 by broth microdilution method; type: functional
Bacillus anthracis [13] = test: Antimicrobial activity against Bacillus anthracis 240 by broth microdilution method; type: functional
Bacillus anthracis [14] = test: Antimicrobial activity against Bacillus anthracis A0264 by broth microdilution method; type: functional
Bacillus anthracis [15] = test: Antimicrobial activity against Bacillus anthracis A0293 by broth microdilution method; type: functional
Bacillus anthracis [16] = test: Antimicrobial activity against Bacillus anthracis A0188 by broth microdilution method; type: functional
Bacillus anthracis [17] = test: Antimicrobial activity against Bacillus anthracis A0419 by broth microdilution method; type: functional
Bacillus anthracis [18] = test: Antimicrobial activity against tetracycline-nonsusceptible Bacillus anthracis Sterne S1028 by broth microdilution method; type: functional, Bacillus anthracis str. Sterne

SMILES | MIC (Bacillus anthracis [1]) | MIC (Bacillus anthracis [2]) | MIC (Bacillus anthracis [3]) | MIC (Bacillus anthracis [4]) | inhibition (Bacillus anthracis [5]) | MIC (Bacillus anthracis [6]) | MIC (Bacillus anthracis [7]) | MIC (Bacillus anthracis [8]) | MIC (Bacillus anthracis [9]) | MIC (Bacillus anthracis [10]) | MIC (Bacillus anthracis [11]) | MIC (Bacillus anthracis [12]) | MIC (Bacillus anthracis [13]) | MIC (Bacillus anthracis [14]) | MIC (Bacillus anthracis [15]) | MIC (Bacillus anthracis [16]) | MIC (Bacillus anthracis [17]) | MIC (Bacillus anthracis [18])
O=C(O)c1cn(C2CC2)c2cc(N3CCNCC3)c(F)cc2c1=O [CIPROFLOXACIN] | 0.015 µg/mL (≈ 0.0453 µM) | 0.12 µg/mL (≈ 0.362 µM) | 1 µg/mL (≈ 3.02 µM) | 0.03 µg/mL (≈ 0.0905 µM) | inactive | 0.12 µg/mL (≈ 0.362 µM) | 0.12 µg/mL (≈ 0.362 µM) | >16 µg/mL | – | – | – | – | – | – | – | – | – | –
C[C@H]1c2cccc(O)c2C(=O)C2=C(O)[C@]3(O)C(=O)C(C(N)=O)=C(O)[C@@H](N(C)C)[C@@H]3[C@@H](O)[C@@H]21.O [DOXYCYCLINE] | ≤ 0.06 µg/mL | ≤ 0.06 µg/mL | <=0.06 ug ml-1 | ≤ 0.06 µg/mL | – | ≤ 0.06 µg/mL | ≤ 0.06 µg/mL | <=0.06 ug ml-1 | ≤ 0.06 µg/mL | ≤ 0.06 µg/mL | ≤ 0.06 µg/mL | ≤ 0.06 µg/mL | ≤ 0.06 µg/mL | ≤ 0.06 µg/mL | ≤ 0.06 µg/mL | ≤ 0.06 µg/mL | ≤ 0.06 µg/mL | 1 µg/mL
